# Results: patent US20030162191A1, “Enzymes and uses relating thereto” (priority 2000, published 2003)
# Columns and labels:
# [1] = system: Human T-cell lymphoma cells (Jurkat); assay: Stimulation of anti-APO-1 (anti-CD95) induced apoptosis in Jurkat cells; assay type: cell-based; conditions: C11AG at 1 μg/ml, 24 hours, 37° C., FIG. 7
# Description: Human T-cell lymphoma cells (Jurkat) were seeded in 96-well plates at a density of 10^5 cells per ml. An antibody directed against CD95 (anti-APO-1) was added at various concentrations with and without C11AG at 1 μg/ml. After incubation at 37° C. for 24 hours, cell numbers were determined afer vital staining. By Nicoleti staining it was confirmed that dead cells had died due to apoptosis. All assays were done in triplicate.
# pH7 nSMase = molecular target: T1, pH7 nSMase (Homo sapiens, UniProt Q92485); assay: pH7 nSMase assay in the presence of C11AG (membranes from Jurkat cells, Tris pH6.5); assay type: biochemical; conditions: pH7 nSMase versus pH8 nSMase
# T1 construct: For pH7 nSMase assays, membranes from Jurkat cells (human T-cell lymphoma) were used; endogenous in cells; host or cells: Jurkat (human T-cell lymphoma) membranes, Triton X-100 eluate
# T1 sequence (Q92485 19-455): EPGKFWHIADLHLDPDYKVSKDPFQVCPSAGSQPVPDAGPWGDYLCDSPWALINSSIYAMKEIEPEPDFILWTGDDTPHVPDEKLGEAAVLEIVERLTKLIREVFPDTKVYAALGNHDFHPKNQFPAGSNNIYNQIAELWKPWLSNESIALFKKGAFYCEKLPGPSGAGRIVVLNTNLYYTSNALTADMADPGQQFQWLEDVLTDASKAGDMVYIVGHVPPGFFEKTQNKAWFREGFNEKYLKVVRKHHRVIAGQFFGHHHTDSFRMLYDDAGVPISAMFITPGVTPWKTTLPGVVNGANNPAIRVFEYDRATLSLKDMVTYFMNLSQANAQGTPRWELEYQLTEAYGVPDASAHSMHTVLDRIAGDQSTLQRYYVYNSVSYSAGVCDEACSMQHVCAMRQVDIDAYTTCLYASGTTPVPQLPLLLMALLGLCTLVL
# Description: SMase activities were determined in the presence of 0, 1, 10, 100 or 1000 μg/ml C11AG. C11AG-acetate was used as a stock solution of 10 mg/ml in water.
# For pH7 nSMase assays, membranes from Jurkat cells (human T-cell lymphoma) were used.
# From each preparation 5 μg of protein were used for (1) a pH7 nSMase assay (in 50 μl 50 mM Tris pH6.5, 5 mM MgCl2, 1 mM NaF, 1 mM NaVO3, 0.1% Triton X 100, 20 nCi ^14C sphingomyelin), (2) a pH8 nSMase assay (in 50 μl 50 mM Tris pH8.5, 5 mM MgCl2, 1 mM NaF, 1 mM NaVO3, 0.1% Triton X 100, 20 nCi ^14C sphingomyelin) and (3) an acidic SMase assay (in 50 μl 50 mM NaH2PO4 pH5.0, 5 mM MgCl2, 1 mM NaF, 1 mM NaVO3, 0.1% Triton X 100, 20 nCi ^14C sphingomyelin).
# After 30 minutes phosphorylcholine (PCH) was extracted by the addition of 2 volumes methanol/chloroform (2/1). PCH counts were determined in an aliquot of 10 μl after separation on TLC plates (Merck 60, F254, running solvent: 0.9% NaCl/methanol/NH4OH (50/70/5, V/V/V) in a Digital Autoradiograph. PCH counts of the uninhibited reaction were set 100% enzyme activity. Each assay was done in quadruplicate.
# [2] = system: cells with or lacking pH8 nSMase; assay: Sensitivity of cells to C11AG according to pH8 nSMase expression; assay type: cell-based
compound,measurement,setting,value
"CCCCCCCCCCC=NNC(=N)N [C11AG, 1-(undecylidene-amino)guanidine]",induction of apoptosis by anti-APO-1,[1],stimulated induction of apoptosis
same,fold more active on pH7 nSMase than on pH8 nSMase,pH7 nSMase,200-1000 fold
same,response to C11AG of cells which have both pH7 nSMase and pH8 nSMase,[2]; cells with both pH7 nSMase and pH8 nSMase,show resistance
same,response to C11AG of cells lacking pH8 nSMase,"[2]; solid tumour cells, T cell lymphoma cells, activated or autoreactive T cells",are sensitive
